# Test results published in publication PMC3947168 (Molecular cancer therapeutics, 2013).
# Where two headings read alike, the source gives them in different places.
# Legend:
# [1] = test system: p-AKT, p-STAT3, p-ERK, p-4E-BP1; assay: c-MET downstream signaling; assay type: cell-based, human; details: SW1736 and TL3; for levels of p-STAT3 and p-AKT / phosphorylation of ERK and 4E-BP1: 0.1, 1.0, and 10 μM
# c-MET [2] = molecular target: T1, c-MET (Homo sapiens, UniProt P08581); details: 10μM; SW1736 and TL3; HGF 20 ng/ml, 10 minutes
# T1 sequence (P08581 25-1390): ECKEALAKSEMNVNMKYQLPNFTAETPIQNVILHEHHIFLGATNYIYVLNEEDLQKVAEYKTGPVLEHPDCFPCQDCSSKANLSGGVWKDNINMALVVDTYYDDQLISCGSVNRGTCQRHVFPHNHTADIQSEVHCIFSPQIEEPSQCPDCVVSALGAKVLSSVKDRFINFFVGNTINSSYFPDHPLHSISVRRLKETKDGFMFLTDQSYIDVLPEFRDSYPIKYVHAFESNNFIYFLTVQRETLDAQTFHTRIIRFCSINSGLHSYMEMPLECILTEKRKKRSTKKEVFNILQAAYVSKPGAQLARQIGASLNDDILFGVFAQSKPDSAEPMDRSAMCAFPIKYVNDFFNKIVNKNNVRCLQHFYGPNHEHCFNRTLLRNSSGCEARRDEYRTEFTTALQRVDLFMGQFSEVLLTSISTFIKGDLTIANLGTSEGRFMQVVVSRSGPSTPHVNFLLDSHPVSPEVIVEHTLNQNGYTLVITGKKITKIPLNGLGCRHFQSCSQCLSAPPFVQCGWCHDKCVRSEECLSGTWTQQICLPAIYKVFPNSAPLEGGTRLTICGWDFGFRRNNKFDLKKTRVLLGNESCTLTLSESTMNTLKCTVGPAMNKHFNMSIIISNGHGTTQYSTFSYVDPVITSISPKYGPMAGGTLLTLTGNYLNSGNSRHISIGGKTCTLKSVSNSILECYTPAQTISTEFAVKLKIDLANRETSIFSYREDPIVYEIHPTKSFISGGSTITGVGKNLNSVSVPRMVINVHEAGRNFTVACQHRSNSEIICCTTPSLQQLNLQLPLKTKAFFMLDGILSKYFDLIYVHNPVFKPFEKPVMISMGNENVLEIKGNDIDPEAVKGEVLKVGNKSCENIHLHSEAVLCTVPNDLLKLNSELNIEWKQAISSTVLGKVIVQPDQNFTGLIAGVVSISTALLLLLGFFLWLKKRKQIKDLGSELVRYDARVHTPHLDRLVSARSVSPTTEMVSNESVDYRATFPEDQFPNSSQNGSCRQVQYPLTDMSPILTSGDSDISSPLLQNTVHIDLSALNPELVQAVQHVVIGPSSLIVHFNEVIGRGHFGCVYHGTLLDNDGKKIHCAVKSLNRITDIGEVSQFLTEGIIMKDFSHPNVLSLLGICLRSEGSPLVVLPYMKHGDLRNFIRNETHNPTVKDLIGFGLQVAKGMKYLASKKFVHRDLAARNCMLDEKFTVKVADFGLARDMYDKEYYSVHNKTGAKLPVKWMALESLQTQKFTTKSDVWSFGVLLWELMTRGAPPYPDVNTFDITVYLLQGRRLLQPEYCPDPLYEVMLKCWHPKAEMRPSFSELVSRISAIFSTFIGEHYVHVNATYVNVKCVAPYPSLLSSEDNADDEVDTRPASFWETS
# MDA-MB-231 cells = assay: MTT cellular proliferation assay, MDA-MB-231; assay type: cell-based; details: Homo sapiens, MDA-MB-231, 72 h, read-out: Growth inhibition (IC50)
# HT29 cells = assay: MTT cellular proliferation assay, HT29; assay type: cell-based; details: Homo sapiens, HT-29, 72 h, read-out: Growth inhibition (IC50)
# SW1736 cells [3] = assay: MTT cellular proliferation assay, SW1736; assay type: cell-based; details: Homo sapiens, SW-1736, read-out: inhibition of cell growth
# TL3 cells [4] = assay: MTT cellular proliferation assay, TL3; assay type: cell-based; details: Homo sapiens; for IC50: 72 h, read-out: Growth inhibition (IC50)
# [5] = test system: thyroid cancer cell lines (SW1736, T2, TL3, BHP2-7); assay: MTT cellular proliferation assay, responsive thyroid cancer cell lines; assay type: cell-based; details: Homo sapiens, SW-1736, 72 h, read-out: IC50 of proliferation
# SW1736 cells [6] = assay: Cell cycle analysis; assay type: cell-based, human; details: 24 hour, diluent control 9%
# T2 cells [7] = assay: Cell cycle analysis; assay type: cell-based, human; details: 24 hour, control 3%
# TL3 cells [8] = assay: Cell cycle analysis; assay type: cell-based, human; details: 24 hour, control 2%
# SW1736 cells [9] = assay: Apoptosis assay; assay type: cell-based, human; details: 10 μM, 24 hours, diluent control 10%
# T2 cells [10] = assay: Apoptosis assay; assay type: cell-based, human; details: 10 μM, 24 hours, diluent control 11%
# TL3 cells [11] = assay: Apoptosis assay; assay type: cell-based, human; details: 10 μM, 24 hours, diluent control 10%
# [12] = test system: SW1736 human anaplastic thyroid tumor xenografts; assay: Murine xenograft model; assay type: in vivo, nu/nu athymic mice
# c-MET [13] = molecular target: T1, c-MET; assay: HGF induced c-MET phosphorylation; assay type: cell-based
# c-MET [14] = molecular target: T1, c-MET; assay: HGF induced c-MET phosphorylation; assay type: cell-based; remark: listed apart in the source
# c-MET [15] = molecular target: T1, c-MET; assay: HGF induced c-MET phosphorylation; assay type: cell-based; remark: listed apart in the source
# c-MET [16] = molecular target: T1, c-MET; assay: HGF induced c-MET phosphorylation; assay type: cell-based; remark: listed apart in the source
# c-MET [17] = details: read-out: Ki value, c-MET; biochemical analysis; cited from earlier work
# c-MET [18] = molecular target: T1, c-MET; details: read-out: p-MET inhibition (IC50); MDA-MB-231; Report; cited from earlier work
# c-MET [19] = molecular target: T1, c-MET; details: read-out: p-MET inhibition (IC50); HT-29; Report; cited from earlier work
# [20] = test system: PTC cell lines (BHP, B-CPAP and TPC-1); details: cited from earlier work
smiles,measurement,setting,value
Cc1[nH]c(/C=C2\C(=O)Nc3ccc(S(=O)(=O)N(C)c4cccc(Cl)c4)cc32)c(C)c1C(=O)N1CCN(C)CC1 [SU11274],"effect on p-AKT, p-STAT3",[1]; 10μM,inhibited
same,effect on p-MET,c-MET [2],inhibited
C[C@@H](Oc1cc(-c2cnn(C3CCNCC3)c2)cnc1N)c1c(Cl)ccc(F)c1Cl [Crizotinib],IC50,MDA-MB-231 cells,2800 nM
same,IC50,HT29 cells,2600 nM
same,inhibition at 1 µM,SW1736 cells [3],< 50%
same,IC50,TL3 cells [4],2600 nM
same,inhibition at 0.1 µM,TL3 cells [4]; read-out: inhibition of cell growth,< 20%
same,IC50,[5],2000 to 3500 nM
same,levels of p-STAT3 and p-AKT,[1],potently decreased
same,phosphorylation of ERK and 4E-BP1,[1],not significantly altered
same,mean G2/M arrest (cells in G2/M),SW1736 cells [6]; 10 μM,74%
same,cells in G2/M,T2 cells [7]; 10 μM,26%
same,cells in G2/M,TL3 cells [8]; 10 μM,48%
same,apoptosis (% Annexin V positive cells),SW1736 cells [9],15%
same,apoptosis (% Annexin V positive cells),T2 cells [10],19%
same,apoptosis (% Annexin V positive cells),TL3 cells [11],27%
same,decrease of mean tumor volume compared to vehicle group,"[12]; 50 mg/kg daily oral gavage, day 50",55.8%
same,Ki67 positivity in tumor tissue compared to vehicle,"[12]; 50 mg/kg, day 50, immunohistochemistry",less
same,c-MET phosphorylation in tumor tissue compared to vehicle,"[12]; 50 mg/kg, tumors dissected 4 hours after drug administration at day 50, western blotting",less
O=C1NC(=O)[C@@H](c2cn3c4c(cccc24)CCC3)[C@@H]1c1c[nH]c2ccccc12 [Tivantinib],IC50,MDA-MB-231 cells,650 nM
same,IC50,HT29 cells,540 nM
same,IC50,TL3 cells [4],330 nM
same,IC50,[5],100 to 1000 nM
same,IC50,c-MET [13],> 1000 nM
same,IC50,c-MET [14],> 1000 nM
same,IC50,c-MET [15],~1000 nM
same,IC50,c-MET [16],~1000 nM
same,levels of p-STAT3 and p-AKT,[1],potently decreased
same,phosphorylation of ERK and 4E-BP1,[1],not significantly altered
same,mean G2/M arrest (cells in G2/M),SW1736 cells [6]; 1 μM,57%
same,cells in G2/M,T2 cells [7]; 1 μM,45%
same,cells in G2/M,TL3 cells [8]; 1 μM,23%
same,apoptosis (% Annexin V positive cells),SW1736 cells [9],14%
same,apoptosis (% Annexin V positive cells),T2 cells [10],21%
same,apoptosis (% Annexin V positive cells),TL3 cells [11],20%
same,Ki,c-MET [17],355 nM
same,IC50,c-MET [18],100 to 300 nM
same,IC50,c-MET [19],100 to 300 nM
Cc1[nH]c(/C=C2\C(=O)Nc3ccc(S(=O)(=O)Cc4c(Cl)cccc4Cl)cc32)c(C)c1C(=O)N1CCC[C@@H]1CN1CCCC1 [PHA665752],in vitro growth of PTC cell lines,[20],growth inhibited
